Assay results as given in the NIST ThermoML archive (doi:10.1016/j.jct.2014.11.001).
Several values for one entry are separate records, joined by “and”; a condition that tells them apart may be missing. Equal values may be shown once.

Assays:
[1] = for Normal melting temperature: DTA
[2] = Molar enthalpy of transition or fusion; conditions: Crystal; DSC

CNC(=O)c1cccnc1 [N-methylnicotinamide]
[1]
Conditions | vapor or sublimation pressure
329.17 K, Crystal, Calculated from knudsen effusion weight loss | 0.000104 kPa and 0.000105 kPa
331.27 K, Crystal, Calculated from knudsen effusion weight loss | 0.000132 kPa and 0.000134 kPa and 0.000131 kPa
333.15 K, Crystal, Calculated from knudsen effusion weight loss | 0.000162 kPa and 0.00016 kPa and 0.000164 kPa
335.17 K, Crystal, Calculated from knudsen effusion weight loss | 0.000211 kPa and 0.000209 kPa and 0.000206 kPa
337.27 K, Crystal, Calculated from knudsen effusion weight loss | 0.000261 kPa and 0.000259 kPa
339.15 K, Crystal, Calculated from knudsen effusion weight loss | 0.000328 kPa and 0.00032 kPa
341.16 K, Crystal, Calculated from knudsen effusion weight loss | 0.000414 kPa and 0.000404 kPa
343.27 K, Crystal, Calculated from knudsen effusion weight loss | 0.00051 kPa and 0.000505 kPa and 0.000513 kPa
345.13 K, Crystal, Calculated from knudsen effusion weight loss | 0.000619 kPa and 0.000613 kPa and 0.000627 kPa
347.16 K, Crystal, Calculated from knudsen effusion weight loss | 0.000784 kPa and 0.000776 kPa and 0.000771 kPa
347.78 K, Crystal, Closed cell (Static) method | 0.00085 kPa
349.27 K, Crystal, Calculated from knudsen effusion weight loss | 0.000971 kPa and 0.000964 kPa and 0.000957 kPa
349.78 K, Crystal, Closed cell (Static) method | 0.00105 kPa
351.69 K, Crystal, Closed cell (Static) method | 0.00127 kPa
353.72 K, Crystal, Closed cell (Static) method | 0.00157 kPa
355.6 K, Crystal, Closed cell (Static) method | 0.00191 kPa
357.66 K, Crystal, Closed cell (Static) method | 0.00232 kPa
359.51 K, Crystal, Closed cell (Static) method | 0.0028 kPa
361.62 K, Crystal, Closed cell (Static) method | 0.00347 kPa
363.5 K, Crystal, Closed cell (Static) method | 0.00416 kPa
365.47 K, Crystal, Closed cell (Static) method | 0.00502 kPa
367.44 K, Crystal, Closed cell (Static) method | 0.00604 kPa
369.43 K, Crystal, Closed cell (Static) method | 0.00721 kPa
371.36 K, Crystal, Closed cell (Static) method | 0.00857 kPa
373.27 K, Crystal, Closed cell (Static) method | 0.01023 kPa
375.33 K, Metastable liquid, Closed cell (Static) method | 0.01316 kPa
375.36 K, Crystal, Closed cell (Static) method | 0.01234 kPa
377.25 K, Metastable liquid, Closed cell (Static) method | 0.01508 kPa
377.39 K, Crystal, Closed cell (Static) method | 0.01496 kPa
379.31 K, Metastable liquid, Closed cell (Static) method | 0.01731 kPa
381.26 K, Closed cell (Static) method, Liquid | 0.01991 kPa
383.29 K, Closed cell (Static) method, Liquid | 0.0228 kPa
385.21 K, Closed cell (Static) method, Liquid | 0.02592 kPa
387.24 K, Closed cell (Static) method, Liquid | 0.02975 kPa
389.16 K, Closed cell (Static) method, Liquid | 0.03359 kPa
391.17 K, Closed cell (Static) method, Liquid | 0.03824 kPa
393.09 K, Closed cell (Static) method, Liquid | 0.04305 kPa
395.12 K, Closed cell (Static) method, Liquid | 0.04915 kPa
397.12 K, Closed cell (Static) method, Liquid | 0.05526 kPa
399.02 K, Closed cell (Static) method, Liquid | 0.06212 kPa
401.07 K, Closed cell (Static) method, Liquid | 0.07023 kPa
403.01 K, Closed cell (Static) method, Liquid | 0.07943 kPa
404.99 K, Closed cell (Static) method, Liquid | 0.08886 kPa
406.95 K, Closed cell (Static) method, Liquid | 0.09977 kPa
408.92 K, Closed cell (Static) method, Liquid | 0.1117 kPa
410.86 K, Closed cell (Static) method, Liquid | 0.1253 kPa
412.85 K, Closed cell (Static) method, Liquid | 0.1398 kPa
414.81 K, Closed cell (Static) method, Liquid | 0.1564 kPa
416.77 K, Closed cell (Static) method, Liquid | 0.1735 kPa
418.72 K, Closed cell (Static) method, Liquid | 0.194 kPa
420.68 K, Closed cell (Static) method, Liquid | 0.2147 kPa
422.64 K, Closed cell (Static) method, Liquid | 0.2384 kPa
424.61 K, Closed cell (Static) method, Liquid | 0.2644 kPa
426.55 K, Closed cell (Static) method, Liquid | 0.2952 kPa

Conditions | Normal melting temperature [°C]
[1], Crystal | 106.0

Conditions | Molar enthalpy of transition or fusion [kcal/mol]
[2] | 5.26

NC(=O)c1cccnc1 [3-pyridinecarboxamide]
[1]
Conditions | vapor or sublimation pressure
341.25 K, Crystal, Calculated from knudsen effusion weight loss | 9.3e-05 kPa
343.28 K, Crystal, Calculated from knudsen effusion weight loss | 0.000117 kPa and 0.000116 kPa
345.05 K, Crystal, Calculated from knudsen effusion weight loss | 0.000142 kPa and 0.000141 kPa and 0.000144 kPa
347.23 K, Crystal, Calculated from knudsen effusion weight loss | 0.000182 kPa and 0.000183 kPa and 0.000184 kPa
349.26 K, Crystal, Calculated from knudsen effusion weight loss | 0.000228 kPa and 0.000226 kPa and 0.00023 kPa
351.07 K, Crystal, Calculated from knudsen effusion weight loss | 0.000277 kPa and 0.000275 kPa and 0.00028 kPa
353.24 K, Crystal, Calculated from knudsen effusion weight loss | 0.000356 kPa and 0.000352 kPa
355.27 K, Crystal, Calculated from knudsen effusion weight loss | 0.000434 kPa and 0.00043 kPa and 0.000436 kPa
356.6 K, Crystal, Closed cell (Static) method | 0.00051 kPa
357.06 K, Crystal, Calculated from knudsen effusion weight loss | 0.000528 kPa and 0.000517 kPa and 0.000525 kPa
358.66 K, Crystal, Closed cell (Static) method | 0.00063 kPa
359.25 K, Crystal, Calculated from knudsen effusion weight loss | 0.000666 kPa and 0.000648 kPa and 0.000656 kPa
360.58 K, Crystal, Closed cell (Static) method | 0.00078 kPa
361.29 K, Crystal, Calculated from knudsen effusion weight loss | 0.000812 kPa and 0.000792 kPa and 0.000807 kPa
363.06 K, Crystal, Calculated from knudsen effusion weight loss | 0.000975 kPa and 0.000964 kPa and 0.00097 kPa
364.49 K, Crystal, Closed cell (Static) method | 0.00116 kPa
366.57 K, Crystal, Closed cell (Static) method | 0.00143 kPa
368.47 K, Crystal, Closed cell (Static) method | 0.00172 kPa
370.51 K, Crystal, Closed cell (Static) method | 0.00211 kPa
372.43 K, Crystal, Closed cell (Static) method | 0.00255 kPa
374.46 K, Crystal, Closed cell (Static) method | 0.00311 kPa
376.31 K, Crystal, Closed cell (Static) method | 0.00371 kPa
378.39 K, Crystal, Closed cell (Static) method | 0.00451 kPa
380.33 K, Crystal, Closed cell (Static) method | 0.00536 kPa
382.34 K, Crystal, Closed cell (Static) method | 0.00647 kPa
384.22 K, Crystal, Closed cell (Static) method | 0.00767 kPa
386.28 K, Crystal, Closed cell (Static) method | 0.00925 kPa
388.17 K, Crystal, Closed cell (Static) method | 0.01094 kPa
390.23 K, Crystal, Closed cell (Static) method | 0.01311 kPa
392.23 K, Crystal, Closed cell (Static) method | 0.01553 kPa
394.43 K, Crystal, Closed cell (Static) method | 0.01868 kPa
396.07 K, Metastable liquid, Closed cell (Static) method | 0.02388 kPa
396.08 K, Crystal, Closed cell (Static) method | 0.02158 kPa
398.04 K, Metastable liquid, Closed cell (Static) method | 0.02729 kPa
398.1 K, Crystal, Closed cell (Static) method | 0.02563 kPa
400.07 K, Metastable liquid, Closed cell (Static) method | 0.03101 kPa
402.04 K, Metastable liquid, Closed cell (Static) method | 0.0351 kPa
404.02 K, Closed cell (Static) method, Liquid | 0.03991 kPa
405.98 K, Closed cell (Static) method, Liquid | 0.04492 kPa
407.93 K, Closed cell (Static) method, Liquid | 0.05046 kPa
409.92 K, Closed cell (Static) method, Liquid | 0.05717 kPa
411.89 K, Closed cell (Static) method, Liquid | 0.06456 kPa
413.87 K, Closed cell (Static) method, Liquid | 0.07284 kPa
415.82 K, Closed cell (Static) method, Liquid | 0.08179 kPa
417.81 K, Closed cell (Static) method, Liquid | 0.09162 kPa
419.77 K, Closed cell (Static) method, Liquid | 0.103 kPa
421.72 K, Closed cell (Static) method, Liquid | 0.1152 kPa
423.69 K, Closed cell (Static) method, Liquid | 0.1283 kPa
425.65 K, Closed cell (Static) method, Liquid | 0.1428 kPa
427.62 K, Closed cell (Static) method, Liquid | 0.1598 kPa
429.58 K, Closed cell (Static) method, Liquid | 0.1773 kPa
431.56 K, Closed cell (Static) method, Liquid | 0.1973 kPa
433.69 K, Closed cell (Static) method, Liquid | 0.2206 kPa

Conditions | Normal melting temperature [°C]
[1], Crystal | 128.1

Conditions | Molar enthalpy of transition or fusion [kcal/mol]
[2] | 5.66

CN(C)C(=O)c1cccnc1 [N,N-dimethylnicotinamide]
[1]
Conditions | vapor or sublimation pressure [kPa]
307.16 K, Metastable liquid, Closed cell (Static) method | 0.00057
308.18 K, Crystal, Closed cell (Static) method | 0.00049
309.14 K, Metastable liquid, Closed cell (Static) method | 0.00069
309.15 K, Crystal, Closed cell (Static) method | 0.00056
310.13 K, Crystal, Closed cell (Static) method | 0.00062
311.15 K, Crystal, Closed cell (Static) method | 0.0007
311.16 K, Metastable liquid, Closed cell (Static) method | 0.00082
312.13 K, Crystal, Closed cell (Static) method | 0.00078
313.1 K, Crystal, Closed cell (Static) method | 0.00088
313.1 K, Metastable liquid, Closed cell (Static) method | 0.00099
314.09 K, Crystal, Closed cell (Static) method | 0.00098
315.07 K, Metastable liquid, Closed cell (Static) method | 0.00118
315.1 K, Crystal, Closed cell (Static) method | 0.0011
317.09 K, Metastable liquid, Closed cell (Static) method | 0.00142
319.04 K, Closed cell (Static) method, Liquid | 0.00169
321.01 K, Closed cell (Static) method, Liquid | 0.002
322.97 K, Closed cell (Static) method, Liquid | 0.00238
324.98 K, Closed cell (Static) method, Liquid | 0.0028
326.94 K, Closed cell (Static) method, Liquid | 0.00334
328.93 K, Closed cell (Static) method, Liquid | 0.00388
330.88 K, Closed cell (Static) method, Liquid | 0.00459
332.9 K, Closed cell (Static) method, Liquid | 0.00538
334.96 K, Closed cell (Static) method, Liquid | 0.00637
336.93 K, Closed cell (Static) method, Liquid | 0.00748
338.92 K, Closed cell (Static) method, Liquid | 0.00861
340.89 K, Closed cell (Static) method, Liquid | 0.01
342.87 K, Closed cell (Static) method, Liquid | 0.01163
344.83 K, Closed cell (Static) method, Liquid | 0.0135
346.82 K, Closed cell (Static) method, Liquid | 0.01555
348.79 K, Closed cell (Static) method, Liquid | 0.0179
350.77 K, Closed cell (Static) method, Liquid | 0.02072
352.74 K, Closed cell (Static) method, Liquid | 0.02375
354.72 K, Closed cell (Static) method, Liquid | 0.02718
356.68 K, Closed cell (Static) method, Liquid | 0.03111
358.66 K, Closed cell (Static) method, Liquid | 0.03534
360.66 K, Closed cell (Static) method, Liquid | 0.04054
362.63 K, Closed cell (Static) method, Liquid | 0.04582
364.61 K, Closed cell (Static) method, Liquid | 0.05247
366.58 K, Closed cell (Static) method, Liquid | 0.05911
368.55 K, Closed cell (Static) method, Liquid | 0.06722
370.52 K, Closed cell (Static) method, Liquid | 0.07569

Conditions | Normal melting temperature [°C]
[1], Crystal | 44.2

Conditions | Molar enthalpy of transition or fusion [kcal/mol]
[2] | 4.64
